From US12544355B2, “Use of monascinol in preparation of fat-reducing product” (TIANJIN UNIVERSITY OF SCIENCE AND TECHNOLOGY, priority 2019, dated 2026)
Marks after values point to notes of the source that are not given here.

Assays:
[1] = test system: HepG2 cells modeled with oleic acid; assay: Cytotoxicity (MTT) on HepG2 cells modeled with oleic acid; assay type: cell-based; conditions: 24 h, 0.3 mmol/L oleic acid
Procedure: (§1) HepG2 cells in good growth condition were inoculated in a 6-well plate at 2*10^5 cells/mL, 1 mL per well. When cell adhesion rate reached 80%-90%, the medium was discarded. A blank group and a model group were set, where a complete medium was added to the blank group, 0.3 mmol/L oleic acid induction solution diluted with a complete medium was added to the model group, at 2 mL per well; after 24 hours of culture, the accumulation of lipid drops in the cells was observed by oil red 0 staining.
• a. HepG2 cells in good growth condition were inoculated in a 96-well plate at 5*10^4 cells/mL, 100 μL per well. When the cell adhesion rate reached 80%-90%, the medium was discarded. • b. MS and MC were each dissolved in dimethyl sulfoxide (DMSO) to prepare a 5 mg/mL of mother liquid, and the mother liquid was stored at −20° C. The 5 mg/mL of mother liquid was diluted with a complete medium containing 0.3 mmol/L of oleic acid to obtain MS sample concentrations or MC sample concentrations (2, 4, 6, 8, 10, 12 μg/mL) required for the experiment, ensuring that a final concentration of DMSO in each sample is 0.5%. • c. […]
After 24 h, the survival rate of HepG2 cells in each group was detected based on a MTT experiment method. • d. results are shown in FIG. 2.

[2] = test system: HepG2 cells modeled with oleic acid; assay: Triglyceride content in HepG2 cells modeled with oleic acid (triglyceride kit); assay type: cell-based; conditions: 24 h, 0.3 mmol/L oleic acid; for reduce the TG content in cells by: Example 3, 2 μg/mL
Procedure: • a. HepG2 cells in good growth condition were inoculated in a 6-well plate at 2*10^5 cells/mL, 1 mL per well, cultured for 12 h, and after the cells adhered to the wall, the medium was discarded. • b. after the medium was discarded, a blank group, a modeling group and a dosing group were set. • Blank control group: added with 2 mL of a complete medium per well; • Oleic acid modeling group: added with 2 mL of a complete medium containing 0.3 mmol/L of oleic acid per well; • MC low dose group: added with 2 mL of a complete medium containing 0.3 mmol/L of oleic acid and 2 μg/mL of Monascinol per well; • MC middle dose group: added with 2 mL of a complete medium containing 0.3 mmol/L of oleic acid and 4 μg/mL of Monascinol per well; • MC high dose group: added with 2 mL of a complete medium containing 0.3 mmol/L of oleic acid and 8 μg/mL of Monascinol per well; • After completing the administration, the cells of each group were cultured for 24 hours and then collected, a triglyceride kit (Beijing Applygen Technologies Inc.) was utilized to measure the content of triglyceride in HepG2 cells of each group. • c. results are shown in FIG. 3. Different letters indicate significant differences from the blank group, P<0.01.
Firstly, normal HepG2 cells were obtained, and HepG2 cells modeled with oleic acid were obtained according to the method in Example 1 (a concentration of oleic acid was 0.3 mmol/L).
(§2) On day 1, blank control group: normally cultured HepG2 cells without treatment; oleic acid modeling group (the concentration of oleic acid is 0.3 mmol/L): normally culture HepG2 cells modeled with oleic acid without treatment; MC group: HepG2 cells modeled with oleic acid were administered with 2 μg/mL of Monascinol, i.e., MC; MS group: HepG2 cells modeled with oleic acid were administered with 2 μg/mL of Monascin (MS).
After completing the administration, the cells of each group were cultured for 24 hours and then collected, a triglyceride kit (Beijing Applygen Technologies Inc.) was utilized to measure the content of triglyceride in HepG2 cells of each group, results are shown in FIG. 4.

[3] = test system: HepG2 cells modeled with oleic acid; assay: Oil red O staining of lipid drops in HepG2 cells modeled with oleic acid; assay type: cell-based; conditions: 2 μg/mL, inverted microscope ×400
Procedure: as §1, §2
Morphological observation was further carried out by oil red 0 staining, and the results are shown in FIGS. 5A-5C (inverted microscope×400), FIG. 5A is a diagram of lipid accumulation in HepG2 cells of an oleic acid modeling group; FIG. 5B is a diagram of lipid accumulation in HepG2 cells of an MS group; FIG. 5C is a diagram of lipid accumulation in HepG2 cells of an MC group. […] This is consistent with the test result of TG.

[4] = target: T1, pancrelipase (Type II, derived from a porcine pancreas) (Sus scrofa, UniProt P00591); assay: Inhibitory activity on pancrelipase, 4-MUO substrate, fluorescence detection; assay type: biochemical; conditions: 4-MUO 0.1 mM, lipase 1 mg/mL, 30 mins at 25° C.
T1 construct: pancrelipase (Type II, derived from a porcine pancreas); from tissue; host or cells: porcine pancreas
T1 sequence (P00591 1-450): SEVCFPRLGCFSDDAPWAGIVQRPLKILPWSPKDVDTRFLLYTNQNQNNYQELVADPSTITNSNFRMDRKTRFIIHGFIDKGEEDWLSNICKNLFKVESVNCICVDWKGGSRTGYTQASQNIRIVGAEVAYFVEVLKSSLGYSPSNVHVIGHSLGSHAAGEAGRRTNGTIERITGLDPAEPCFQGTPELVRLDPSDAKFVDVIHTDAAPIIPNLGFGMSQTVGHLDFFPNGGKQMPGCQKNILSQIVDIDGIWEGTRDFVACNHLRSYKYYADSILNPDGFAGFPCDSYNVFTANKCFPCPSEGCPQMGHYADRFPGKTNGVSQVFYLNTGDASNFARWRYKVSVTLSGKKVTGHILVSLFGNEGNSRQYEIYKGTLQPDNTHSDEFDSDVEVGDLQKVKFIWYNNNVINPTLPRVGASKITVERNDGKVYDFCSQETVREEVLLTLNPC
From the text: In an experiment, 4-methylumbelliferyl oleate (4-MUO) was used as a substrate and a fluorescence detection method was used to evaluate the inhibitory activity of MC on pancrelipase (Type II, derived from a porcine pancreas).
The following groups were set (see also Table 1): • Blank group: no MC sample, only substrate, pancrelipase and Tris-HCL buffer; • Blank background group: no MC sample and pancrelipase, only substrate and Tris-HCL buffer; • Sample background group: no pancrelipase, only MC sample, substrate and Tris-HCL buffer; • Sample group: no Tris-HCL buffer, only MC sample, substrate and pancrelipase.
The inhibition rate was calculated according to the following formula: Inhibition rate (%)=[(A1−A2)−(A3−A4)]/(A1−A2)×100
A1: Fluorescence value in blank group; A2: Fluorescence value in blank background group; A3: Fluorescence value in sample group; and A4: Fluorescence value in sample background group.
Three parallel experiments were set for each group, in which the concentration of 4-MUO is 0.1 mM, and the MC samples were dissolved in DMSO (set 6 different concentrations: 5, 10, 20, 40, 80 and 160 μg/mL), the concentration of the lipase solution is 1 mg/mL. […] Therefore, the product 4-methylumbelliferone was determined under conditions of an excitation wavelength of 360±40 nm and an emission wavelength 460±40 nm. […]

[5] = target: T2, pancrelipase (Sus scrofa, UniProt P00591); assay: Type of inhibition on pancrelipase (order of addition, Lineweaver-Burk double reciprocal plot); assay type: biochemical, porcine; conditions: 160 μg/mL MC, lipase 1 mg/mL
T2 construct: pancrelipase (Type II, derived from a porcine pancreas); from tissue; host or cells: porcine pancreas
T2 sequence (P00591 1-450): T1 sequence (P00591 1-450)
Procedure: According to different forms and characteristics of binding between enzymes and inhibitors, the inhibitions can be divided into two types: reversible inhibition and irreversible inhibition. The irreversible inhibition usually binds to a group in an enzyme protein by a relatively strong covalent bond to inactivate an enzyme. […] In this part of experiment, MS and AK were used as controls, and the type of inhibition of MC was determined by changing the order of adding reactants, the intervention concentrations of the three pigment inhibitors were all 80 μg/mL. […]
The type of inhibition of MC on pancrelipase was determined based on the results of Lineweaver-burk double reciprocal plot method as follows.
A basic process of experiment of drawing the Lineweaver-Burk curve was: under the condition of a determined lipase concentration (1 mg/mL), the enzymatic reaction rates were measured with a series of different substrate concentrations. […]

[6] = test system: Golden Syrian hamsters fed with high-fat diet; assay: High-fat diet hamster experiment, 10 weeks gavage; assay type: in vivo, Golden Syrian hamster
Procedure: 24 male Golden Syrian hamsters (hamsters for short) used in the animal experiment were purchased from Beijing Vital River Laboratory Animal Technology Co., Ltd., weighing 110-120 g, and aged 8 weeks.
After acclimation for a period of time, they were randomly divided into 3 groups, each with 8 animals, and the grouping and experiments were carried out as follows:
Every day starting from Day 1: • Normal group (NOR): take normal-chow diet freely, and gavage the same amount of CMC-Na solution as the MC group; • High fat group (HFD): take high-fat chow diet freely, and gavage the same amount of CMC-Na solution as the MC group; • MC group: take high-fat chow diet freely, and gavage MC (dissolved in CMC-Na solution) at a dose of 20 mg/kg body weight.
The weight and food intake of the hamsters were measured every week. After 10 weeks, tissue samples or serum samples were collected and the following analysis was performed.
TC and TG in the liver were extracted based on the Folch method, the TC and TG detection kits produced by Nanjing Jiancheng Bioengineering Institute was used to detect the contents of TC and TG in liver tissue according to the method provided in the instructions.
Cobas8000 E602 full-automatic biochemical analyzer (Roche Diagnostics Co., Ltd., Germany) was used to measure TC and TG in serum of collected serum samples.

[7] = high-fat diet, gavage 20 mg/kg body weight daily
[8] = histology, 100× and 400× light microscope, 20 mg/kg

## C/C=C/C1=CC2=C(CO1)C[C@]1(C)OC(=O)[C@H](C(O)CCCCC)[C@H]1C2 (stereo partly drawn) [MC, Monascinol]
[1]; administration concentration 12 μg/mL
  survival rate of cells: 66.7%
[2]; Example 2, 2 μg/mL
  TG content in the cells decreased by (vs modeling group): 38.9%
[2]; Example 2, 4 μg/mL
  TG content in the cells decreased by (vs modeling group): 34.6%
[2]; Example 2, 8 μg/mL
  TG content in the cells decreased by (vs modeling group): 51.3%
[2]
  reduce the TG content in cells by: 33.3%
[3]
  lipid drops in the cells, oil red O staining vs oleic acid modeling group: reduce lipid drops in the cells and lighten color
[4]
  IC50: 219 µM
[5]
  type of inhibition on pancrelipase: anti-competitive inhibition
[6]; [7]
  Fat index (weight of perirenal and periepididymal fat pad/weight of body): 3.56 ± 0.26^a
  Liver tissue TC: 20.66 ± 0.58^c mg/g
  Liver tissue TG: 9.62 ± 0.34^a mg/g
  Liver weight: 4.21 ± 0.17^a g
  Serum TC: 4.73 ± 0.21^b mmol/L
  Serum TG: 2.97 ± 0.39^c mmol/L
  Weight gain: 22.33 ± 4.12^c g
  Weight of periepididymal fat pad: 2.99 ± 0.28^a g
  Weight of perirenal fat pad: 1.62 ± 0.19^a g
[6]; [8]
  adipose tissue sections: volume of periepididymal and perirenal adipose cells vs HFD group: significantly smaller volume than that in the HFD group
  liver tissue sections: lipid accumulation in liver cells vs HFD group: significantly reduced

## C/C=C/C1=CC2=C(CO1)C(=O)[C@]1(C)OC(=O)[C@H](C(=O)CCCCC)[C@H]1C2 [MS, Monascin]
[1]; administration concentration 10 μg/mL or more
  survival rate of cells: 36.7%
[2]
  reduce the TG content in cells by: 26.3%
